Results reported in patent publication US11191732B2, “Glutaminase inhibitor discovery and nanoparticle-enhanced delivery for cancer therapy” (The Johns Hopkins University, priority 2014, dated 2021).
pIC50: −log10 of the molar value.

What was measured:
GLS = GLS (Homo sapiens (Human), UniProt O94925); assay: Inhibition of GLS (established radioactive assay); assay type: biochemical
Text: All new synthetic compounds can be tested for their ability to inhibit GLS using an already established radioactive assay.

[1] = tested on: KRAS-mutant human pancreatic cancer cells; assay: Growth of glutamine-addicted pancreatic cancer cells with BPTES; assay type: cell-based; conditions: full DMEM media, BPTES dissolved in DMSO
Method: Cells were grown at 37° C. in a 5% (v/v) CO2 and 95% (v/v) air incubator in full DMEM media.

[2] = tested on: glutamine-dependent JHU094 pancreatic patient tumor; assay: JHU094 pancreatic patient tumor growth in vivo; set-up: species or system mice; conditions: nanoparticle 1.2 mg vs free 0.3125 mg in 100 μl, IV
Text: (§1) DMSO solution per dose, as this was is the highest dose that could be administered based on solubility and injection volume limitations.

[3] = BPTES levels in pancreatic tumors after intravenous administration (LC-MS/MS); assay type: in vivo, mice; conditions: all time points, limit of detection 10 nM
Text: BPTES levels were quantified by LC-MS/MS.
as §1

Metabolic stability = assay type: in vitro ADME; conditions: oxidation of the sulfide moiety
Text: In compound 4, the terminal aminothiadiazole ring was replaced with a secondary amide, presenting a new scaffold for GLS inhibitors.

Panc265 tumor = assay: Panc265 patient-derived orthotopic pancreatic cancer xenograft tumor growth; assay type: in vivo; conditions: BPTES nanoparticles 1.2 mg every 3 days IV; gemcitabine 625 μg twice per week IP; 4 weeks
[4] = tested on: resected pancreatic cancer; conditions: six cycles adjuvant, cited from earlier work
[5] = tested on: resected pancreatic cancer; conditions: 6 months adjuvant treatment after complete macroscopic resection; cited from earlier work

Chain of GLS (O94925 73-669): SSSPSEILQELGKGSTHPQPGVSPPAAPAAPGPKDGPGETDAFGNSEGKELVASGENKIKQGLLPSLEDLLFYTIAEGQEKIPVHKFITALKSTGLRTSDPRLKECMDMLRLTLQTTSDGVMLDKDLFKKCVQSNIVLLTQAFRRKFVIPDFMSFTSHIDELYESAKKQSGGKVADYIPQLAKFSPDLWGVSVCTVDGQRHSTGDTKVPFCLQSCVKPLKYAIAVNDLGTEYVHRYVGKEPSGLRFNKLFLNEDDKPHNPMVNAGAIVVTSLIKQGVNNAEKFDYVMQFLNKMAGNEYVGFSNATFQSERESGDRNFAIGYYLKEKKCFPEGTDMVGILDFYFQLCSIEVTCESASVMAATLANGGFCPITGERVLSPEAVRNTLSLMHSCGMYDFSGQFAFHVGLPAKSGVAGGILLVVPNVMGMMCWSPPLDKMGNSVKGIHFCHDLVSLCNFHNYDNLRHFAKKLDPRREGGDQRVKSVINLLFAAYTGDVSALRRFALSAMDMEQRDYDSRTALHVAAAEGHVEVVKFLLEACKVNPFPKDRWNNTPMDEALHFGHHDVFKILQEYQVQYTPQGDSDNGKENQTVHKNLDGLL

O=C(O)CCCCCC(=O)Nc1nnc(CCCCc2nnc(NC(=O)Cc3ccccc3)s2)s1 [Compound 7]
pIC50 (GLS): 7.00

O=C(Cc1ccccc1)Nc1nnc(CCSCCc2nnc(NC(=O)Cc3ccccc3)s2)s1 [BPTES, bis-2-[5-(phenylacetamido)-1,3,4-thiadiazol-2-yl]ethyl sulfide]
effect on growth of glutamine-addicted pancreatic cancers [1]: inhibitory to their growth
effect on tumor growth [2]: no statistical benefit
BPTES level in tumor [3]: < 10 nM

Nc1nnc(CCSCCc2nnc(N)s2)s1 [Compound 2]
metabolic stability (Metabolic stability): metabolically unstable
pIC50 (GLS): 4.00

O=C(O)CCCCC(=O)Nc1nnc(CCCCc2nnc(NC(=O)Cc3ccccc3)s2)s1 [Compound 6]
pIC50 (GLS): 7.00

Nc1nnc(CCCCc2nnc(NC(=O)Cc3ccccc3)s2)s1 [Compound 3]
pIC50 (GLS): 5.72

O=C(CCCCc1nnc(NC(=O)Cc2ccccc2)s1)NCCN1CCCC1 [Compound 4]
pIC50 (GLS): 5.34

O=C(Cc1ccccc1)Nc1nnc(CCCCc2nnc(NC(=O)Cc3ccc(O)cc3)s2)s1 [Compound 5]
pIC50 (GLS): 7.10

Nc1ccn([C@@H]2O[C@H](CO)[C@@H](O)C2(F)F)c(=O)n1 [gemcitabine]
reduction in tumor growth (Panc265 tumor): 40-50%
survival rate at 10 years ([4]; observation-alone arm 7.7%): 12.2%
survival rate at 5 years ([4]; observation-alone arm 10.4%): 20.7%
Median OS [5]: 23.6 months
